In US7960130B2, “Method for activation of transient receptor potential cation channel, subfamily A, member 1 using acetaldehyde” (Korea University Industry and Academy Cooperation Foundation, priority 2008, dated 2011):
“Also recorded” adds a separate entry of the source.

Key:
trigeminal neurons [1] = assay: Fluo-3 calcium imaging of cultured mouse trigeminal neurons; conditions: 1 μM PGE2 + modulator: SC-51089 10 μM, U73122 3 μM, U73343 3 μM, BIM 1 μM, chelerythrine 1 μM, H-89 10 μM
mTRPA1 = biological target: T1, mTRPA1 (Mus musculus, UniProt Q8BLA8); assay: Fluo-3 calcium imaging of mTRPA1-transfected HEK293T cells; type: cell-based; conditions: 1 mM acetaldehyde + 2 mM camphor or 10 μM ruthenium red, n=21
T1 construct: expressed in transfected cells; host or cells: HEK293T (ATCC CRL-11268), pcDNA5/FRT
T1 sequence (Q8BLA8 whole entry): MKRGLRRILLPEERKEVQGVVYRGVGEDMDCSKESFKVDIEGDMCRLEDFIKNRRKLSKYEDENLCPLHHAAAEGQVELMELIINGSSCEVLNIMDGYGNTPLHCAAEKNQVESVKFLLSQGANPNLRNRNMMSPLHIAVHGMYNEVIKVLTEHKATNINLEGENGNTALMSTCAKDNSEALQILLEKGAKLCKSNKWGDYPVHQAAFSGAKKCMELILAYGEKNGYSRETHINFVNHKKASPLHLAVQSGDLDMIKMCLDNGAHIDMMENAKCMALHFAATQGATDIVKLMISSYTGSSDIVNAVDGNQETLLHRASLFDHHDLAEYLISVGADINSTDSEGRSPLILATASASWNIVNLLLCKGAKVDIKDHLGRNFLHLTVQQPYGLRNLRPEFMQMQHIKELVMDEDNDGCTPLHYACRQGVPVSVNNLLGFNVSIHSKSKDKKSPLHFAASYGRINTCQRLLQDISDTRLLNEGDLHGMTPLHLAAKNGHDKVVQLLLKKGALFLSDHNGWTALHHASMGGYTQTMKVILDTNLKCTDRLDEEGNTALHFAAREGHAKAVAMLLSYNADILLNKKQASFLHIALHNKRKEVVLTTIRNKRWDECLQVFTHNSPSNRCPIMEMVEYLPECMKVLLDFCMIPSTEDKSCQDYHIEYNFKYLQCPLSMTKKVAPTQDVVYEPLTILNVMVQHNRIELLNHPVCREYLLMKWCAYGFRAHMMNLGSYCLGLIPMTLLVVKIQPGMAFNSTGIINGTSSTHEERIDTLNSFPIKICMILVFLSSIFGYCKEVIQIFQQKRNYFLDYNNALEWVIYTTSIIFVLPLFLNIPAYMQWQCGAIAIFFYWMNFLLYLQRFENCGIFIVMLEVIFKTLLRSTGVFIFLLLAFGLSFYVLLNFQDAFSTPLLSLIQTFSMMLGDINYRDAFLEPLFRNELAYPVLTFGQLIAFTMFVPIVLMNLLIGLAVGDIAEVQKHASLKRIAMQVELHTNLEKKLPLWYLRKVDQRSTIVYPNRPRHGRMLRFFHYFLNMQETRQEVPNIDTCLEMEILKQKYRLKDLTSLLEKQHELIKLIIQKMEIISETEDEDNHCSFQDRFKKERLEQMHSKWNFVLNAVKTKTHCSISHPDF
Experimental: (§1) Particularly, the HEK293T cell line was transiently transfected with individual TRP channel plasmid (pcDNA3.1 containing polynucleotide encoding hTRPA1, rTRPV2, rTRPV1 or mTRPV4; pcDNA5/FRT containing polynucleotide encoding mTRPA1, hTRPV3 or mTRPM8) 3 μg per 35-mm dish and 600 ng/well of pcDNA3 (Invitrogen Corp., USA; containing green fluorescent protein (GFP) cDNA) using Fugene6 (Roche Diagnostics, USA) according to manufacturer's instruction. The transformed cells were cultured in DMEM/F12 containing 10% FBS and 1% penicillin/streptomycin in a CO2 incubator for 24 hours. The cells were replated onto poly-L-lysine-coated glass coverslips, followed by further culture for 10-24 hours.
(§2) Calcium imaging was performed with a confocal microscope (LSM5 Pascal, Carl Zeiss, Germany), and time-lapse images (488 nm excitation/514 nm emission) were collected every 3 seconds using Carl Zeiss ratio tool software (Carl Zeiss, Germany).
(§3) Stock solutions were made using water or ethanol, and were diluted with test solutions before use.

hTRPA1 = biological target: T2, hTRPA1 (Homo sapiens, UniProt O75762); assay: Fluo-3 calcium imaging of hTRPA1-transfected HEK293T cells; type: cell-based; conditions: for suppression of acetaldehyde-evoked intracellular calcium influx (hTRPA1): 1 mM acetaldehyde + 2 mM camphor or 10 μM ruthenium red, n=12; for elevation of intracellular calcium levels in hTRPA1-expressing cells: 1 mM acetaldehyde, 300 μM cinnamaldehyde, 10 mM acetic acid, 1% methanol, 1% ethanol
T2 construct: expressed in transfected cells; host or cells: HEK293T (ATCC CRL-11268), pcDNA3.1
T2 sequence (O75762 whole entry): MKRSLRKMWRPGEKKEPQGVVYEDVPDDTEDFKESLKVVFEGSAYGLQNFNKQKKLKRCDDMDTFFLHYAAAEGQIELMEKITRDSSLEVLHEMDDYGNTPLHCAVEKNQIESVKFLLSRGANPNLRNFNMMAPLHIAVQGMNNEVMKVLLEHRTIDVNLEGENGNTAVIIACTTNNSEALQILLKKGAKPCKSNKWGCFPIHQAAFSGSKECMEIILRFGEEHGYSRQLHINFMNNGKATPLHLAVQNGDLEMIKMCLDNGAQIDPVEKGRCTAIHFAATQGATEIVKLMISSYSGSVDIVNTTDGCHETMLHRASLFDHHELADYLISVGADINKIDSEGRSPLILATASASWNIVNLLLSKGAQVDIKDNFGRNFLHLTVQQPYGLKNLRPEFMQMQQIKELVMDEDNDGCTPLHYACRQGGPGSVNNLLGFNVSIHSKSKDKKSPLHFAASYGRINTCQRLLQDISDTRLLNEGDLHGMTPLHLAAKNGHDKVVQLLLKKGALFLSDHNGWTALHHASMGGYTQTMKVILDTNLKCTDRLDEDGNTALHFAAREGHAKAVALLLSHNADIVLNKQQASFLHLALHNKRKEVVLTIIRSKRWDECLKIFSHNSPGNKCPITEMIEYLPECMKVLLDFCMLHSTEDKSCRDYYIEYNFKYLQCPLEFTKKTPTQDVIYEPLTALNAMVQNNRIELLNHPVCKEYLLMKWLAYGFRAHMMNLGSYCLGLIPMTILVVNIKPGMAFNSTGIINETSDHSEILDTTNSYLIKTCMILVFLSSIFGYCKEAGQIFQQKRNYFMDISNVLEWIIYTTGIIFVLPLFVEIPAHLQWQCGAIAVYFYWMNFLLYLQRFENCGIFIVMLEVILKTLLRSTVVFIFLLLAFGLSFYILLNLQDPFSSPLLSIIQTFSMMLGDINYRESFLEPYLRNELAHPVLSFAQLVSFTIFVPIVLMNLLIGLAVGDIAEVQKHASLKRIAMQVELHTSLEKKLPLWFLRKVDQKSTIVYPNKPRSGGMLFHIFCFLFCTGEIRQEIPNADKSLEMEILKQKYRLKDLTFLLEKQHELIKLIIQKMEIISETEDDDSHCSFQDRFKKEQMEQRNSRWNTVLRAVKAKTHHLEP
Experimental: as §1, §3, §2, §3

ICR mice = assay: Acute hindpaw licking/flicking behavioral analysis; conditions: for suppression of acetaldehyde-evoked licking/flicking behaviors: 100 mM acetaldehyde, 1 mM ruthenium red, 100 μM or 1 mM GdCl3 injected 5 min prior; for suppression of acetaldehyde-evoked licking/flicking behaviors / suppression of cinnamaldehyde-evoked licking/flicking behaviors: 10 mM camphor; for suppression of cinnamaldehyde-evoked licking/flicking behaviors: 10 mM cinnamaldehyde, 100 μM or 1 mM GdCl3, intradermal
Experimental: This analysis was performed in accordance with protocols approved by the University Committee on Laboratory Animals. Mice were acclimated for 1 h to the test environment prior to experiments. Drugs dissolved in vehicle (PBS containing 0.5% Tween 80) were injected into mice right hindpaws intradermally.

TRPA1 = assay: Whole-cell voltage-clamp recording of TRPA1 transfected cell line; type: cell-based
Experimental: as §1, §3
This experiment was repeated 5 times.

trigeminal neurons [2] = assay: Whole-cell voltage-clamp recording of cultured trigeminal neurons; type: cell-based, mouse; conditions: 1 mM acetaldehyde, co-application of 20 μM GdCl3 and 2 mM camphor
Experimental: Trigeminal ganglia were dissected out of decapitated adult ICR mice in cold PBS and treated with 1.5 mg/Ml of collagenase/dispase (Roche Diagnostics, USA) at 37 °C for 45 min, and then treated with 0.25% trypsin (Invitrogen, USA) for 15 min. The trigeminal neurons prepared thereby were then plated onto poly-L-lysine-coated coverslips in DMEM/F12 containing 10% FBS, 1% penicillin/streptomycin and 5 ng/Ml of 2.5S NGF (Invitrogen, USA), nerve growth factor (Invitrogen), followed by culture in a CO2 incubator for 48-72 hours.
Particularly, the extracellular solution (140 mM NaCl, 5 mM KCl, 2 mM CaCl2, 1 mM MgCl2, 10 mM HEPES; titrated to pH 7.4 with NaOH) and the pipette solution (140 mM CsCl, 5 mM EGTA, 10 mM HEPES, 2.0 mM MgATP, 0.2 mM NaGTP; titrated to pH 7.2 with CsOH) were used. The potential was holded at −60 mV for 250 ms, voltage-ramp pulsed from −80 mV to +80 mV for […] and returned to −60 mV for 250 ms, which was repeated without intersweep. This experiment was repeated 5 times.
The trigeminal neurons prepared by the same manner as described in Example 2 were delayed-treated with 1 mM acetaldehyde, followed by treatment of 20 μM GdCl3 (a TRPA1 blocker gadolinium; Sigma-Aldrich, USA) and 2 mM camphor. Then, whole-cell voltage-clamp recording was performed by the same manner as described in Example <5-2>.

For `COc1ccc2c(c[n+](C)c3c4cc5c(cc4ccc23)OCO5)c1OC` [chelerythrine], the “suppression of the PGE2-induced potentiation of acetaldehyde responses” value (shortened to “suppression … of acetaldehyde responses”) (trigeminal neurons [1]) was “significantly suppressed”.

`N.N.N.N.N.N.N.N.N.N.N.N.N.N.[Cl-].[Cl-].[Cl-].[Cl-].[Cl-].[Cl-].[O-2].[O-2].[Ru+3].[Ru+3].[Ru+4]` [ruthenium red] was tested, and the “suppression of acetaldehyde-evoked intracellular calcium influx (mTRPA1)” value (mTRPA1) was “suppressed”, the “suppression of acetaldehyde-evoked intracellular calcium influx (hTRPA1)” value (hTRPA1) was “so did; also recorded: suppressed” and the “suppression of acetaldehyde-evoked licking/flicking behaviors” value (ICR mice; intradermal) was “suppressed”.

SC-51089 was tested, and the “suppression … of acetaldehyde responses” value (trigeminal neurons [1]) was “significantly suppressed”.

With `COc1ccc2c(c1)CC[C@@H]1[C@@H]2CC[C@]2(C)[C@@H](NCCCCCCN3C(=O)C=CC3=O)CC[C@@H]12` [U73122] the “suppression … of acetaldehyde responses” value (trigeminal neurons [1]) was “significantly suppressed”.

In the case of `COc1ccc2c(c1)CC[C@@H]1[C@@H]2CC[C@]2(C)[C@@H](NCCCCCCN3C(=O)CCC3=O)CC[C@@H]12` [U73343], the “suppression … of acetaldehyde responses” value (trigeminal neurons [1]) was “did not suppress”.

`O=CC=Cc1ccccc1` [cinnamaldehyde] was tested, and the “whole-cell current response in TRPA1 expressing cells” value (TRPA1; 1 mM acetaldehyde, 300 μM cinnamaldehyde, voltage ramp -80 to +80 mV, n=5) was “responsive”, the “elevation of intracellular calcium levels in hTRPA1-expressing cells” value (hTRPA1) was “TRPA1-specific responses; also recorded: responded” and the “acute hindpaw licking/flicking behavior elicited” value (ICR mice; intradermal into hindpaw, 10 μl, 100 mM acetaldehyde or 10 mM cinnamaldehyde, 10 min, n=5) was “time spent in licking/flicking behaviors increased”.

In the case of `CC(=O)O` [acetic acid], the “elevation of intracellular calcium levels in hTRPA1-expressing cells” value (hTRPA1) was “failed to elevate intracellular calcium levels”.

`[Cl][Gd]([Cl])[Cl]` [GdCl3] was tested, and the “inhibition of acetaldehyde-evoked current in trigeminal neurons” value (trigeminal neurons [2]) was “inhibited”, the “suppression of nociceptive behaviors at a micromolar dose” value (ICR mice; 100 μM GdCl3, intradermal) was “significantly suppress” and the “suppression of cinnamaldehyde-evoked licking/flicking behaviors” value (ICR mice) was “suppressed”. For the same compound, the “suppression of acetaldehyde-evoked licking/flicking behaviors” value (ICR mice; intradermal) was “suppressed”.

With `CCO` [ethanol] the “elevation of intracellular calcium levels in hTRPA1-expressing cells” value (hTRPA1) was “failed to elevate intracellular calcium levels”.

For `CO` [methanol], the “elevation of intracellular calcium levels in hTRPA1-expressing cells” value (hTRPA1) was “failed to elevate intracellular calcium levels”.

With `CC12CCC(CC1=O)C2(C)C` (stereo not drawn) [camphor] the “suppression of acetaldehyde-evoked intracellular calcium influx (mTRPA1)” value (mTRPA1) was “suppressed”, the “inhibition of acetaldehyde-evoked current in trigeminal neurons” value (trigeminal neurons [2]) was “inhibited” and the “inhibition of acetaldehyde-evoked current in TRPA1 expressing cells” value (TRPA1; 1 mM acetaldehyde + 2 mM camphor) was “inhibited”. For the same compound, the “suppression of acetaldehyde-evoked intracellular calcium influx (hTRPA1)” value (hTRPA1) was “completely suppressed”, the “suppression of cinnamaldehyde-evoked licking/flicking behaviors” value (ICR mice) was “suppressed” and the “duration of suppressive effect on PGE2-potentiated sensitization” value (ICR mice; 100 mM acetaldehyde + 1 μM PGE2 + 10 mM camphor) was 8 min. The “suppression of the effect of co-injection of acetaldehyde and PGE2” value (ICR mice; 100 mM acetaldehyde + 1 μM PGE2 + 10 mM camphor, intradermal) was “suppressed” and the “suppression of acetaldehyde-evoked licking/flicking behaviors” value (ICR mice; intradermal) was “suppressed”.

For bisindolmaleimide [BIM], the “suppression … of acetaldehyde responses” value (trigeminal neurons [1]) was “significantly suppressed”.

With `O=S(=O)(NCCNC/C=C/c1ccc(Br)cc1)c1cccc2cnccc12` [H-89] the “suppression … of acetaldehyde responses” value (trigeminal neurons [1]) was “did not suppress”.
